The text below walks through data of ChEMBL document CHEMBL1833881, “Synthesis of a new trifluoromethylketone analogue of l-arginine and contrasting inhibitory activity against human arginase I and histone deacetylase 8” (Bioorg Med Chem Lett, 2011).

pIC50, pKd: −log10 of the molar value. The source made the active and inactive calls. The calls are words filed in the database; no cut-off is given here.

For assay [1], the target named is Histone deacetylase 4 (Homo sapiens, UniProt P56524). The assay is described as follows: Inhibition of human HDAC4 catalytic domain (residues Thr648-Thr1057) expressed in Escherichia coli BL21using fluorogenic substrate by fluorescence assay.
Chain of Histone deacetylase 4 (P56524 whole entry, the tested form may be a part): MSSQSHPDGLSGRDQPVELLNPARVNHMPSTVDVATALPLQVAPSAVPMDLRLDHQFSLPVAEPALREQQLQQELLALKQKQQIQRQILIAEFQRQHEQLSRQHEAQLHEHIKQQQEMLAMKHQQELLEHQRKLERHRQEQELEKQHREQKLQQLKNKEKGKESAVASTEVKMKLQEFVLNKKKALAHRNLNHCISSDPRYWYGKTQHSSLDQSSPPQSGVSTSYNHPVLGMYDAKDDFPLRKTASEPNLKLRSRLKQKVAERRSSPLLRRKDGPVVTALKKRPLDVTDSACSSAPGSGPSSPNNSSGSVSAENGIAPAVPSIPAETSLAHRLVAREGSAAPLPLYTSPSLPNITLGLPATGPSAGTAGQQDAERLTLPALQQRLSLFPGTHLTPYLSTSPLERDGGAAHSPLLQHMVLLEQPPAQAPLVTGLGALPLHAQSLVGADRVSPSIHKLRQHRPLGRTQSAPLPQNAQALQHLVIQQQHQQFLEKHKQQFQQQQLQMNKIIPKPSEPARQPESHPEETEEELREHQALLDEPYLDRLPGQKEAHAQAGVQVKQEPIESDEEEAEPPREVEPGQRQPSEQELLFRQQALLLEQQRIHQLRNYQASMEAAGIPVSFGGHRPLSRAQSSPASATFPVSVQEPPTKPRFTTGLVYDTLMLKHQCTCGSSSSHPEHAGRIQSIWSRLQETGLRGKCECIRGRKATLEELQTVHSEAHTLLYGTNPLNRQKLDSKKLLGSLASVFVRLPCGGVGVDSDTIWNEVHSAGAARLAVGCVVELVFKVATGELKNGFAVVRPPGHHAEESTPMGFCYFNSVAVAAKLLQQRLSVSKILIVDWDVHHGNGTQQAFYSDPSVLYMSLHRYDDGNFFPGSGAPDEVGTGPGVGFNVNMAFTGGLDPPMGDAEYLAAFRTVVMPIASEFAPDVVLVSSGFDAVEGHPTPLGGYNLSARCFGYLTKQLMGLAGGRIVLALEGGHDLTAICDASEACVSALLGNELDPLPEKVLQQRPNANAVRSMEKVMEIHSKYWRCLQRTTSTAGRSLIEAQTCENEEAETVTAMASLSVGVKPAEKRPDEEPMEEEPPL
The target of assay [2] is T1, Arginase-1 (Homo sapiens, UniProt P05089).
T1 sequence (P05089 whole entry): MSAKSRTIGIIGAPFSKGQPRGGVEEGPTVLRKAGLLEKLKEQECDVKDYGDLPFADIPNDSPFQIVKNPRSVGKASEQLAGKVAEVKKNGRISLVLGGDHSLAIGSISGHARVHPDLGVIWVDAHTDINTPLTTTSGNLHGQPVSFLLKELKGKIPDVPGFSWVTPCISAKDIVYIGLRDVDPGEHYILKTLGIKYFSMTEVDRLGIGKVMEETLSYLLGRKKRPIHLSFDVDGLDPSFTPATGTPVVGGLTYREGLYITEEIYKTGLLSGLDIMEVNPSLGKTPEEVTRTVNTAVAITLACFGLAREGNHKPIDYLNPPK
In words: (§1) Displacement of [14C-guanidino]-L-arginine from human recombinant full length arginase 1 expressed in Escherichia coli BL21(DE3) by fixed point assay.

The nature of assay [3]: Ratio of IC50 for Mycoplana ramosa acetylpolyamine amidohydrolase to IC50 for HDAC8.
Assay [4] has as its target T2, Arginase-1 (Homo sapiens) (UniProt P05089).
T2 sequence (whole entry): T1 sequence (P05089 whole entry)
The assay is described as §1.

In turn, `O=C(c1ccc(C(=O)C(F)(F)F)s1)N1CCn2c(-c3ccccc3)cnc2C1` gave a negative-log IC50 (pIC50) in assay [1] of 6.44.

As for `N[C@@H](CCCCC=O)C(=O)O`, the pKd in assay [2] is 4.22.

For the molecule `N[C@@H](CCCCC(=O)C(F)(F)F)C(=O)O`, the Ratio IC50 in assay [3] amounted to 73. Moreover, the inhibition entry in assay [4] was “inactive”.
